{"source": "patent US9085520B2", "about": "“Composition for treating diabetes and metabolic diseases and a preparation method thereof” (KAOHSIUNG MEDICAL UNIVERSITY, priority 2011, dated 2015)", "key": {"[1]": {"system": "3T3-L1 adipocytes", "test": "glucose consumption (remaining glucose) in culture medium of 3T3-L1 adipocytes", "format": "cell-based", "conditions": "for remaining glucose concentration in culture medium after 24 hours: culture medium of 3T3-L1 adipocytes after 24 hours, means ± SD, N = 3; for glucose absorption activity of adipocytes 3T3-L1 (anti-hyperglycemic ability): FIG. 1, medium glucose 300 mg/dl, remaining glucose after 24 hours", "procedure": "After precursor adipocytes 3T3-L1 were induced as the matured adipocytes, culture medium with glucose (concentration of 300 mg/dl) and drugs were added, and the concentration of the remaining glucose in the culture medium were measured after 24 hours.\nAdipose tissues are major sites for postprandial glucose uptake. Therefore, in vitro anti-diabetic screening model based on measuring glucose consumption after 24 hours in culture medium of 3T3-L1 adipocytes was developed. […] Accordingly, 60 chalcone derivatives with and without substitutions on A-ring were examined in our developed model. […] Structure-activity relationship (SAR) analyses data are also determined."}, "[2]": {"system": "3T3-L1 adipocytes", "test": "adipocyte death / toxicity to adipocytes", "conditions": "30 μg/ml, matured 3T3-L1 adipocytes, 24 hours"}, "[3]": {"system": "C57BL/6 mice", "test": "body weight gain of high-fat diet induced obesity mice", "format": "in vivo", "conditions": "HF diet C57BL/6 mice", "source_text": "(§1) Please refer to FIG. 2, C57BL/6 mice were grouped as four groups. (a) “Control” group (normal healthy animal group): the mice were fed with normal feed. (b) “High-fat (HF) diet” group (unhealthy negative control group): the mice were fed with high-fat-percentage feed (at least 40% fat) for a long-term period for inducing obesity and metabolic syndromes. (c) “HF diet+pioglitazone” group (clinical administration control group): the mice were fed with high-fat-percentage feed (at least 40% fat) for a long-term period for inducing obesity and metabolic syndromes and simultaneously administered with the clinically anti-diabetes TZD, pioglitazone (oral dosage: 6.75 mg/kg/day). […] The number of mice in the groups (a) to (d) were 5, 5, 6 and 13 respectively.\n(§2) The method and conditions for performing Experiment 7 were similar to those in Experiments 3 and 4, wherein C57BL/6 mice were grouped as five groups, (a) “Control” group (n=6), (b) “HF diet” group (n=7); (c) “HF diet+pioglitazone” group (oral dosage: 6.75 mg/kg/day pioglitazone, n=8); (d) “HF diet+compound 26×1” group: the mice were fed with high-fat-percentage feed (at least 40% fat) for a long-term period for inducing obesity and metabolic syndromes and simultaneously administered with compound 26 (oral dosage: 6.75 mg/kg/day, n=11); and (e) “HF diet+compound 26×5” group (oral dosage: 33.75 mg/kg/day compound 26, n=12)."}, "[4]": {"system": "C57BL/6 mice", "test": "fasting blood glucose level of HF diet mice", "format": "in vivo", "conditions": "oral 6.75 mg/kg/day, 7 weeks, FIG. 3(a)", "source_text": "as §1\n(§3) The numbers of mice in Experiment 4 were the same as in Experiment 3, and mice were divided as four groups, “control”, “HF diet”, “HF diet+pioglitazone” and “HF diet+compound 12” groups."}, "[5]": {"system": "C57BL/6 mice", "test": "oral glucose tolerance test (OGTT) in HF diet mice", "format": "in vivo", "conditions": "7 weeks", "procedure": "as §3, §2"}, "[6]": {"system": "3T3-L1 adipocytes", "test": "lipid droplet formation in 3T3-L1 adipocytes (Oil-Red O staining)", "format": "cell-based", "conditions": "insulin 3.2×10^−7 M, RSZ, PIO, chalcone derivatives 30 μg/ml, DMEM 25 mM D-glucose, 4 days", "procedure": "After two days of differentiation, 3T3-L1 cells were treated without (control) or with insulin (3.2×10^−7 M), RSZ (30 μg/ml), PIO (30 μg/ml), and chalcone derivatives (30 μg/ml) in DMEM containing 25 mM D-glucose. After 4 days, lipid droplets were observed by Oil-Red O staining (data not shown)."}}, "note": "Entries after “also recorded” stand apart in the source; their conditions may differ."}
{"compound": "COc1cccc(/C=C/C(=O)c2ccc(O)cc2O)c1", "note": "[Compound 6, (E)-1-(2,4-dihydroxyphenyl)-3-(3-methoxyphenyl)-prop-2-en-1-one]", "values": [{"measurement": "remaining glucose concentration in culture medium after 24 hours", "setting": "[1]; 30 μg/ml, control 310 ± 4.0", "value": "274 ± 12.1", "unit": "mg/dL"}, {"measurement": "glucose absorption activity of adipocytes 3T3-L1 (anti-hyperglycemic ability)", "setting": "[1]; 30 μg/ml", "value": "not significantly better than that in compound 9"}, {"measurement": "adipocyte death / toxicity to adipocytes", "setting": "[2]", "value": "lead to adipocyte death; also recorded: toxic"}]}
{"compound": "O=C(/C=C/c1ccccc1)c1ccccc1", "note": "[Compound 9, (E)-chalcone]", "values": [{"measurement": "remaining glucose concentration in culture medium after 24 hours", "setting": "[1]; 30 μg/ml, control 310 ± 4.0", "value": "253 ± 9.9", "unit": "mg/dL"}, {"measurement": "glucose absorption activity of adipocytes 3T3-L1 (anti-hyperglycemic ability)", "setting": "[1]; 30 μg/ml", "value": "relatively similar"}, {"measurement": "adipocyte death / toxicity to adipocytes", "setting": "[2]", "value": "non-toxic"}]}
{"compound": "COc1ccc(/C=C/C(=O)c2ccccc2Br)cc1", "note": "[Compound 12, (E)-1-(2-bromophenyl)-3-(4-methoxyphenyl)prop-2-en-1-one]", "values": [{"measurement": "glucose absorption activity of adipocytes 3T3-L1 (anti-hyperglycemic ability)", "setting": "[1]; 30 μg/ml", "value": "best anti-hyperglycemic ability; also recorded: best activity"}, {"measurement": "body weight gain", "setting": "[3]; oral dosage 6.75 mg/kg/day, FIG. 2", "value": "significantly inhibit the body weight gain; also recorded: inhibited"}, {"measurement": "adipocyte death / toxicity to adipocytes", "setting": "[2]", "value": "didn't result in adipocyte death"}, {"measurement": "fasting blood glucose level", "setting": "[4]", "value": "significantly inhibit the increase of blood glucose level; also recorded: inhibition of the blood glucose level"}, {"measurement": "glucose intolerance (OGTT)", "setting": "[5]; HF diet mice, oral 6.75 mg/kg/day, FIG. 3(b), 6.75 mg/kg/day", "value": "significantly inhibit the occurrence of glucose intolerance; also recorded: inhibition of glucose intolerance"}, {"measurement": "formation of lipid droplets", "setting": "[6]", "value": "significantly prevent the formation of lipid droplets"}]}
{"compound": "COc1ccc(/C=C/C(=O)c2ccccc2I)cc1", "note": "[Compound 26, (E)-1-(2-iodophenyl)-3-(4-methoxyphenyl)prop-2-en-1-one]", "values": [{"measurement": "glucose absorption activity of adipocytes 3T3-L1 (anti-hyperglycemic ability)", "setting": "[1]; 30 μg/ml", "value": "best anti-hyperglycemic ability"}, {"measurement": "body weight / obesity", "setting": "[3]; oral dosage 6.75 or 33.75 mg/kg/day, FIG. 5", "value": "significantly prevents obesity; also recorded: inhibited"}, {"measurement": "adipocyte death / toxicity to adipocytes", "setting": "[2]", "value": "didn't result in adipocyte death"}, {"measurement": "glucose intolerance / insulin resistance", "setting": "[5]; HF diet C57BL/6 mice, oral dosage 6.75 or 33.75 mg/kg/day, FIG. 6", "value": "significantly prevents obesity and insulin resistance; also recorded: inhibition of glucose intolerance"}, {"measurement": "formation of lipid droplets", "setting": "[6]", "value": "significantly prevent the formation of lipid droplets"}]}
{"compound": "Insulin: insulin, positive control in the adipocyte tests", "values": [{"measurement": "glucose consumption", "setting": "[1]; Experiment 6, insulin 3.2×10^−7 M, RSZ, PIO 30 μg/ml, DMEM 25 mM D-glucose", "value": "promote glucose consumption"}, {"measurement": "remaining glucose concentration in culture medium after 24 hours", "setting": "[1]; insulin 3.2 × 10^−17M", "value": "294 ± 6.3", "unit": "mg/dL"}, {"measurement": "formation of lipid droplets", "setting": "[6]", "value": "increase the lipid droplets in adipocytes"}]}
